Measurements published in ChEMBL document CHEMBL6127107, “Oleanolic acid derivatives against drug-resistant bacteria and fungi by multi-targets to avoid drug resistance” (Eur J Med Chem, 2024).
≈ marks a conversion by molar mass, not a printed value. Calls of active or inactive are those of the source. No cut-off for these calls is given here.

Experiments:
DNA [1] = assay: Binding affinity to methicillin-resistant Staphylococcus aureus DNA assessed as effect on helical structure by measuring change in positive and negative peaks at 10 to 40 microg/ml by CD spectra; format: nucleic-acid assay; settings: dose 10-40 µg/ml
[2] = Selectivity index, ratio of HC50 for hemolytic activity against Mianyang red blood cells (unknown origin) to MIC for antimicrobial activity against methicillin resistant Staphylococcus aureus 003; format: toxicity, cell-based, RBC; settings: read-out: Selectivity Index
Staphylococcus aureus [3] = assay: Synergistic antibacterial activity against methicillin-resistant Staphylococcus aureus assessed as fractional inhibitory concentration index in presence of vancomycin; format: functional
Staphylococcus aureus [4] = assay: Synergistic antibacterial activity against methicillin-resistant Staphylococcus aureus assessed as fractional inhibitory concentration index in presence of cefoxitin; format: functional
Staphylococcus aureus [5] = assay: Bactericidal activity against methicillin-resistant Staphylococcus aureus; format: functional, organism-based
Candida albicans = assay: Antimicrobial activity against fluconazole-resistant Candida albicans; format: functional
Escherichia coli = assay: Antimicrobial activity against Escherichia coli; format: functional
DNA [6] = assay: Binding affinity to methicillin-resistant Staphylococcus aureus DNA assessed as change in DNA conformation by UV absorption based analysis; format: nucleic-acid assay
Cell membrane [7] = assay: Disruption of cell membrane integrity in methicillin-resistant Staphylococcus aureus assessed as cell rupture at 2 to 4 times of MIC by scanning electron microscopic analysis; format: subcellular
Cell membrane [8] = assay: Disruption of cell membrane integrity in methicillin-resistant Staphylococcus aureus assessed as nucleic acid leakage by absorbance based analysis; format: subcellular
Cell membrane [9] = assay: Disruption of cell membrane integrity in methicillin-resistant Staphylococcus aureus assessed as increase in PI fluorescence at 2 to 8 times of MIC by PI staining based fluorescence analysis; format: subcellular
DNA [10] = assay: Binding affinity to methicillin-resistant Staphylococcus aureus DNA minor groove assessed as decrease in fluorescence by DAPI staining based analysis; format: nucleic-acid assay
Staphylococcus aureus [11] = assay: Synergistic antibacterial activity against methicillin-resistant Staphylococcus aureus assessed as fractional inhibitory concentration index in presence of lincomycin hydrochloride; format: functional
Staphylococcus aureus [12] = assay: Synergistic antibacterial activity against methicillin-resistant Staphylococcus aureus assessed as fractional inhibitory concentration index in presence of streptomycin; format: functional
Staphylococcus aureus [13] = assay: Antibacterial activity against methicillin-resistant Staphylococcus aureus assessed as inhibition of bacterial growth at 1 times of MIC; format: functional, organism-based
DNA [14] = assay: Binding affinity to methicillin-resistant Staphylococcus aureus DNA assessed as decrease in fluorescence by PI staining based analysis; format: nucleic-acid assay
[15] = Hemolytic activity against Mianyang red blood cells (unknown origin); format: toxicity, cell-based, RBC
DNA [16] = assay: Binding affinity to methicillin-resistant Staphylococcus aureus DNA assessed as inhibition of DNA migration at 75 microg/ml by electrophoretic analysis; format: nucleic-acid assay; settings: dose 75.0 µg/ml
Staphylococcus aureus [17] = assay: Synergistic antibacterial activity against methicillin-resistant Staphylococcus aureus assessed as fractional inhibitory concentration index in presence of ampicillin; format: functional
DNA [18] = assay: Binding affinity to […] methicillin-resistant Staphylococcus aureus DNA assessed as inhibition of DNA migration by electrophoretic analysis; format: nucleic-acid assay
Staphylococcus aureus [19] = assay: Antibiofilm activity against methicillin-resistant Staphylococcus aureus assessed as reduction in number of live cells at 8 times of MIC (reference value: 7.79 log10CFU/ml); format: functional
Staphylococcus aureus [20] = assay: Antimicrobial activity against Staphylococcus aureus 31; format: functional
Staphylococcus aureus [21] = assay: Antibacterial activity against methicillin-resistant Staphylococcus aureus in presence of DNA; format: functional, organism-based
Staphylococcus aureus [22] = assay: Synergistic antibacterial activity against methicillin-resistant Staphylococcus aureus assessed as fractional inhibitory concentration index in presence of chlorpromazine; format: functional
Staphylococcus aureus [23] = assay: Antimicrobial activity against methicillin-resistant Staphylococcus aureus in presence of phosphatidylethanolamine; format: functional, organism-based
Staphylococcus aureus [24] = assay: Antibiofilm activity against methicillin-resistant Staphylococcus aureus assessed as decrease in biofilm biomass at 1 to 8 times of MIC by crystal violet staining based analysis; format: functional, organism-based
Staphylococcus aureus [25] = assay: Synergistic antibacterial activity against methicillin-resistant Staphylococcus aureus assessed as fractional inhibitory concentration index in presence of ceftriaxone; format: functional
Cell membrane [26] = assay: Disruption of cell membrane integrity in methicillin-resistant Staphylococcus aureus assessed as cell deformation at 2 to 4 times of MIC by scanning electron microscopic analysis; format: subcellular
Staphylococcus aureus [27] = assay: Synergistic antibacterial activity against methicillin-resistant Staphylococcus aureus assessed as fractional inhibitory concentration index in presence of fluconazole; format: functional
Cell membrane [28] = assay: Disruption of cell membrane integrity in Candida albicans; format: subcellular
Staphylococcus aureus [29] = assay: Bactericidal activity against methicillin-resistant Staphylococcus aureus assessed as eradication of bacterial growth at 4 times of MIC measured within 6 hrs relative to control; format: functional
Staphylococcus aureus [30] = assay: Antimicrobial activity against methicillin-resistant Staphylococcus aureus 003; format: functional
Staphylococcus aureus [31] = assay: Antibiofilm activity against methicillin-resistant Staphylococcus aureus assessed as inhibition of biofilm formation at 2 times of MIC by crystal violet staining based analysis relative to control; format: functional
Staphylococcus aureus [32] = assay: Selectivity ratio of MBEC for methicillin-resistant Staphylococcus aureus to MIC for methicillin resistant Staphylococcus aureus; format: functional
HEK-293T = assay: Cytotoxicity against HEK293T cells at 64 microg/ml by MTT assay; format: toxicity, cell-based; settings: human, dose 64 µg/ml
Staphylococcus aureus [33] = assay: Antimicrobial activity against methicillin-resistant Staphylococcus aureus in presence of cardiolipin; format: functional, organism-based
Staphylococcus aureus [34] = assay: Antimicrobial activity against Staphylococcus aureus 29; format: functional
Staphylococcus aureus [35] = assay: Antimicrobial activity against methicillin-resistant Staphylococcus aureus 011; format: functional
Staphylococcus aureus [36] = assay: Synergistic antibacterial activity against methicillin-resistant Staphylococcus aureus assessed as fractional inhibitory concentration index in presence of azithromycin; format: functional
Mitochondrial membrane = assay: Induction of mitochondrial membrane depolarization in methicillin-resistant Staphylococcus aureus assessed as increase in fluorescence intensity at 1 to 8 times of MIC by DiSC3(5) staining based analysis; format: cell membranes
Staphylococcus aureus [37] = assay: Antimicrobial activity against Staphylococcus aureus 10; format: functional
Staphylococcus aureus [38] = assay: Antimicrobial activity against methicillin-resistant Staphylococcus aureus in presence of peptidoglycan; format: functional, organism-based
Cell membrane [39] = assay: Disruption of cell membrane integrity in methicillin-resistant Staphylococcus aureus assessed as increase in ROS level at 2 to 8 times of MIC incubated for 1 hrs; format: subcellular
Staphylococcus aureus [40] = assay: Antibacterial activity against methicillin-resistant Staphylococcus aureus at sub-MIC measured after 20 days of continuous passage; format: functional, organism-based; settings: time 20.0 day
Enterococcus faecalis = assay: Antimicrobial activity against vancomycin resistant Enterococcus faecalis ATCC 51299; format: functional
Staphylococcus aureus [41] = assay: Antibiofilm activity against methicillin-resistant Staphylococcus aureus assessed as decrease in biofilm density at 1 to 8 times of MIC incubated for 24 hrs by fluorescence microscopic analysis; format: functional, organism-based
Pseudomonas aeruginosa = assay: Antimicrobial activity against Pseudomonas aeruginosa; format: functional
Staphylococcus aureus [42] = assay: Synergistic antibacterial activity against methicillin-resistant Staphylococcus aureus assessed as fractional inhibitory concentration index in presence of chloramphenicol; format: functional

For `CC1(C)CC[C@]2(C(=O)O)CC[C@]3(C)C(=CC[C@@H]4[C@@]5(C)CC[C@H](OCC(O)CCCNC(=N)N)C(C)(C)[C@@H]5CC[C@]43C)[C@@H]2C1` (stereo partly drawn), the Activity (DNA [1]) was “Active”, the selectivity ratio [2] was less than 390 and the “fractional inhibitory concentration index (FICI)” value (Staphylococcus aureus [3]) was “<=0.5”. For the same molecule, the “fractional inhibitory concentration index (FICI)” value (Staphylococcus aureus [4]) was “<=0.5”, the Activity (Staphylococcus aureus [5]) was “Active” and the MIC (Candida albicans) was 2 µg/mL (≈ 3.33 µM). The MIC (Escherichia coli) was greater than 64 µg/mL, the Activity (DNA [6]) was “Active” and the Activity (Cell membrane [7]) was “Active”. The Activity (Cell membrane [8]) was “Active”, the Activity (Cell membrane [9]) was “Active” and the Activity (DNA [10]) was “inactive”. For the same molecule, the “fractional inhibitory concentration index (FICI)” value (Staphylococcus aureus [11]) was “<=0.5”, the “fractional inhibitory concentration index (FICI)” value (Staphylococcus aureus [12]) was 0.25 and the Activity (Staphylococcus aureus [13]) was “Active”. For the same molecule, the Activity (DNA [14]) was “Dose-Dependent Effect”, the HC50 [15] was 779 µg/mL and the Activity (DNA [16]) was “Active”. The “fractional inhibitory concentration index (FICI)” value (Staphylococcus aureus [17]) was “<=0.5”, the Activity (DNA [18]) was “Active” and the Activity (Staphylococcus aureus [19]) was 2.7 log10CFU/ml. For the same molecule, the MIC (Staphylococcus aureus [20]) was 2 µg/mL (≈ 3.33 µM), the Activity (Staphylococcus aureus [21]) was “inactive” and the “fractional inhibitory concentration index (FICI)” value (Staphylococcus aureus [22]) was “<=0.5”. The Activity (Staphylococcus aureus [23]) was “inactive”, the Activity (Staphylococcus aureus [24]) was “Active” and the “fractional inhibitory concentration index (FICI)” value (Staphylococcus aureus [25]) was “<=0.5”. For the same molecule, the Activity (Cell membrane [26]) was “Active”, the “fractional inhibitory concentration index (FICI)” value (Staphylococcus aureus [27]) was “<=0.5” and the Activity (Cell membrane [28]) was “Active”. For the same molecule, the Activity (Staphylococcus aureus [29]) was 99.99%, the MIC (Staphylococcus aureus [30]) was greater than 2 µg/mL and the “inhibition (INH)” value (Staphylococcus aureus [31]) was greater than 80%. The selectivity ratio (Staphylococcus aureus [32]) was 16, the Activity (HEK-293T) was “Non-Toxic” and the Activity (Staphylococcus aureus [33]) was “inactive”. The MIC (Staphylococcus aureus [34]) was 4 µg/mL (≈ 6.67 µM), the MIC (Staphylococcus aureus [35]) was 2 µg/mL (≈ 3.33 µM) and the “fractional inhibitory concentration index (FICI)” value (Staphylococcus aureus [36]) was “<=0.5”. For the same molecule, the Activity (Mitochondrial membrane) was “Dose-Dependent Effect”, the MIC (Staphylococcus aureus [37]) was 2 µg/mL (≈ 3.33 µM) and the Activity (Staphylococcus aureus [38]) was “Active”. The Activity (Cell membrane [39]) was “Active”, the Activity (Staphylococcus aureus [40]) was “Active” and the MIC (Enterococcus faecalis) was 2 µg/mL (≈ 3.33 µM). For the same molecule, the Activity (Staphylococcus aureus [41]) was “Dose-Dependent Effect”, the MIC (Pseudomonas aeruginosa) was greater than 64 µg/mL and the “fractional inhibitory concentration index (FICI)” value (Staphylococcus aureus [42]) was “<=0.5”.
